From patent EP4667458A1 (Kanaph Therapeutics Inc., priority 2023, dated 2024)

The molecules below were run against T1, KRAS^G12C::SOS1 (Homo sapiens, UniProt Q07889) (assay: KRAS G12C::SOS1 protein-protein interaction (PPI) inhibition assay (HTRF binding kit)).
T1 sequence (Q07889 1-1333): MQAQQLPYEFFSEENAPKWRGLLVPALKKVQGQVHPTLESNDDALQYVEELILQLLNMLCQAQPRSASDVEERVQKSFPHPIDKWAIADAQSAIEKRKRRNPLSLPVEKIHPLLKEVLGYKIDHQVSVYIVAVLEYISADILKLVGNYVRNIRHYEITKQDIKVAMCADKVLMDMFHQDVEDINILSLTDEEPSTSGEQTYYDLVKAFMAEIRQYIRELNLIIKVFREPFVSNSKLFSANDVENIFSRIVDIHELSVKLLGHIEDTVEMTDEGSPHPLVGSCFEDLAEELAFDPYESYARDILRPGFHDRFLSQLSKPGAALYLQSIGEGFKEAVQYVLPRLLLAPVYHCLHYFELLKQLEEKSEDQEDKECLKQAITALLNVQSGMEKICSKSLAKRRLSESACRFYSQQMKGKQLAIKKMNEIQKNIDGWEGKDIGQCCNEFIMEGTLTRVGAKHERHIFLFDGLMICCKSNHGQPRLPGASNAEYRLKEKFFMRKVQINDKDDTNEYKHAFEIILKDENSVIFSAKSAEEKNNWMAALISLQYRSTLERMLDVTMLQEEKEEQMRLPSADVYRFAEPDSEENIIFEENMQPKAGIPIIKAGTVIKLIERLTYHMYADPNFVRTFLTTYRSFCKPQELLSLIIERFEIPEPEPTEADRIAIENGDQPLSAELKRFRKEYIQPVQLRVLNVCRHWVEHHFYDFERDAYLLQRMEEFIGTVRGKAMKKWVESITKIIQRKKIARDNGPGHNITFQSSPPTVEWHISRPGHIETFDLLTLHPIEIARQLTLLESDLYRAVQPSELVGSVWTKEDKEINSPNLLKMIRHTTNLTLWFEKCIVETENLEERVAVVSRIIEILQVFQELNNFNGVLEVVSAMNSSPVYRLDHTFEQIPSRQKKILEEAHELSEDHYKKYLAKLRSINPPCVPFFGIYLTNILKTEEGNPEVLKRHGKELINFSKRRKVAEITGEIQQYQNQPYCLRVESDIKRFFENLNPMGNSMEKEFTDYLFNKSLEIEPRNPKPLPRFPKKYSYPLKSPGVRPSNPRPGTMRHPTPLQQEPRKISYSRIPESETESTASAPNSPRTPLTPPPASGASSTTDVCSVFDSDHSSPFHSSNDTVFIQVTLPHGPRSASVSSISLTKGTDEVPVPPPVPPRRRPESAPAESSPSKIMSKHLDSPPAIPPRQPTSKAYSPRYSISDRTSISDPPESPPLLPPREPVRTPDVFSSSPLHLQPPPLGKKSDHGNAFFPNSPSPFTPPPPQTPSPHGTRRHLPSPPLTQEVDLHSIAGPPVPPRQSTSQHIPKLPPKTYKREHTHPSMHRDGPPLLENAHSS

Row | IC50 [nM] | Structure (SMILES)
1 | < 1000 | COc1cccc(-n2cc(C(=O)N[C@H](C)c3cc(N)cc(C(F)(F)F)c3)ccc2=O)c1F [Example 187, N-[(1R)-1-[3-amino-5-(trifluoromethyl)phenyl]ethyl]-1-(2-fluoro-3-methoxy-phenyl)-6-oxo-pyridine-3-carboxamide]
2 | < 1000 | C[C@@H](NC(=O)c1ccc(=O)n(-c2ccc(F)cc2F)n1)c1cccc(C(F)(F)CO)c1F [Example 352, N-[(1R)-1-[3-(1,1-difluoro-2-hydroxy-ethyl)-2-fluoro-phenyl]ethyl]-1-(2,4-difluorophenyl)-6-oxo-pyridazine-3-carboxamide]
3 | < 1000 | C[C@@H](NC(=O)c1ccc(=O)n(-c2cccc(-c3nnnn3C)c2)n1)c1cc(N)cc(C(F)(F)F)c1 [Example 347, N-[(1R)-1-[3-amino-5-(trifluoromethyl)phenyl]ethyl]-1-[3-(1-methyltetrazol-5-yl)phenyl]-6-oxo-pyridazine-3-carboxamide]
4 | < 1000 | C[C@@H](NC(=O)c1ccc(=O)n(-c2ccccc2F)c1)c1cc(N)cc(C(F)F)c1 [Example 263, N-[(1R)-1-[3-amino-5-(difluoromethyl)phenyl]ethyl]-1-(2-fluorophenyl)-6-oxo-pyridine-3-carboxamide]
5 | < 1000 | COc1ccccc1-n1cc(C(=O)N[C@H](C)c2cc(N)cc(C(F)(F)F)c2)ccc1=O [Example 168, N-[(1R)-1-[3-amino-5-(trifluoromethyl)phenyl]ethyl]-1-(2-methoxyphenyl)-6-oxo-pyridine-3-carboxamide]
6 | 1000 to 10000 | COc1ccc(-n2nc(C(=O)N[C@H](C)c3cc(N)cc(C(F)(F)F)c3)c(C3CC3)cc2=O)c(F)c1 [Example 367, N-[(1R)-1-[3-amino-5-(trifluoromethyl)phenyl]ethyl]-4-cyclopropyl-1-(2-fluoro-4-methoxy-phenyl)-6-oxo-pyridazine-3-carboxamide]
7 | < 1000 | C[C@@H](NC(=O)c1ccc(=O)n(-c2ccn(C)n2)n1)c1cc(N)cc(C(F)(F)F)c1 [Example 387, N-[(1R)-1-[3-amino-5-(trifluoromethyl)phenyl]ethyl]-1-(1-methylpyrazol-3-yl)-6-oxo-pyridazine-3-carboxamide]
8 | < 1000 | C[C@@H](NC(=O)c1ccc(=O)n(CCF)n1)c1cc(N)cc(C(F)(F)F)c1 [Example 226, N-[(1R)-1-[3-amino-5-(trifluoromethyl)phenyl]ethyl]-1-(2-fluoroethyl)-6-oxo-pyridazine-3-carboxamide]
9 | < 1000 | [2H]C([2H])([2H])n1nncc1-c1cccc(-n2nc(C(=O)N[C@H](C)c3cc(N)cc(C(F)(F)F)c3)ccc2=O)c1 [Example 237, N-[(1R)-1-[3-amino-5-(trifluoromethyl)phenyl]ethyl]-1-[3-(3-(trideuteriomethyl)triazol-4-yl)phenyl]-6-oxo-pyridazine-3-carboxamide]
10 | < 1000 | CNCc1ccc(F)cc1-c1ccc([C@@H](C)NC(=O)c2ccc(=O)n(-c3ccccc3F)n2)s1 [Example 286, N-[(1R)-1-[5-[5-fluoro-2-(methylaminomethyl)phenyl]-2-thienyl]ethyl]-1-(2-fluorophenyl)-6-oxo-pyridazine-3-carboxamide]
11 | < 1000 | C[C@@H](NC(=O)c1nn(-c2cnn(C)c2)c(=O)c2cc[nH]c12)c1cc(N)cc(C(F)(F)F)c1 [Example 307, N-[(1R)-1-[3-amino-5-(trifluoromethyl)phenyl]ethyl]-5-(1-methylpyrazol-4-yl)-4-oxo-1H-pyrrolo[2,3-d]pyridazine-7-carboxamide]
12 | < 1000 | C[C@@H](NC(=O)c1ccc(=O)n(-c2cccc(-c3nnnn3C)c2)c1)c1cc(N)cc(C(F)(F)F)c1 [Example 349, N-[(1R)-1-[3-amino-5-(trifluoromethyl)phenyl]ethyl]-1-[3-(1-methyltetrazol-5-yl)phenyl]-6-oxo-pyridine-3-carboxamide]
13 | > 10000 | C[C@@H](NC(=O)c1nn(-c2ccccc2F)c(=O)cc1O)c1cccc(C(F)(F)CO)c1F [Example 365, N-[(1R)-1-[3-(1,1-difluoro-2-hydroxy-ethyl)-2-fluoro-phenyl]ethyl]-1-(2-fluorophenyl)-4-hydroxy-6-oxo-pyridazine-3-carboxamide]
14 | < 1000 | CC(=O)Nc1cc(=O)n(-c2ccccc2F)nc1C(=O)N[C@H](C)c1cc(N)cc(C(F)(F)F)c1 [Example 382, 4-acetamido-N-[(1R)-1-[3-amino-5-(trifluoromethyl)phenyl]ethyl]-1-(2-fluorophenyl)-6-oxo-pyridazine-3-carboxamide]
15 | < 1000 | C[C@@H](NC(=O)c1ccc(=O)n(-c2cccc(-c3cncn3C)c2)n1)c1cc(N)cc(C(F)(F)F)c1 [Example 320, N-[(1R)-1-[3-amino-5-(trifluoromethyl)phenyl]ethyl]-1-[3-(3-methylimidazol-4-yl)phenyl]-6-oxo-pyridazine-3-carboxamide]
16 | < 1000 | C[C@@H](NC(=O)c1ccc(=O)n(-c2ccccc2F)n1)c1cccc(C(F)(F)CN(C)C)c1F [Example 257, N-[(1R)-1-[3-[2-(dimethylamino)-1,1-difluoro-ethyl]-2-fluorophenyl]ethyl]-1-(2-fluorophenyl)-6-oxo-pyridazine-3-carboxamide]
17 | < 1000 | Cc1nnnn1-c1cccc(-n2nc(C(=O)N[C@H](C)c3cc(N)cc(C(F)(F)F)c3)ccc2=O)c1 [Example 373, N-[(1R)-1-[3-amino-5-(trifluoromethyl)phenyl]ethyl]-1-[3-(5-methyltetrazol-1-yl)phenyl]-6-oxo-pyridazine-3-carboxamide]
18 | < 1000 | C[C@@H](NC(=O)c1ccc(=O)n(-c2ccccc2F)n1)c1cccc(C#N)c1F [Example 260, N-[(1R)-1-(3-cyano-2-fluoro-phenyl)ethyl]-1-(2-fluorophenyl)-6-oxo-pyridazine-3-carboxamide]
19 | < 1000 | C[C@@H](NC(=O)c1nn(-c2ccccc2F)c(=O)c2ccsc12)c1cc(N)cc(C(F)(F)F)c1 [Example 309, N-[(1R)-1-[3-amino-5-(trifluoromethyl)phenyl]ethyl]-5-(2-fluorophenyl)-4-oxo-thieno[2,3-d]pyridazine-7-carboxamide]
20 | < 1000 | CNCc1ccc(Cl)cc1-c1ccc([C@@H](C)NC(=O)c2ccc(=O)n(-c3cccnc3)n2)s1 [Example 285, N-[(1R)-1-[5-[5-chloro-2-(methylaminomethyl)phenyl]-2-thienyl]ethyl]-6-oxo-1-(3-pyridyl)pyridazine-3-carboxamide]
21 | < 1000 | COc1ccc(F)c(-n2cc(C(=O)N[C@H](C)c3cc(N)cc(C(F)(F)F)c3)ccc2=O)c1 [Example 178, N-[(1R)-1-[3-amino-5-(trifluoromethyl)phenyl]ethyl]-1-(2-fluoro-5-methoxy-phenyl)-6-oxo-pyridine-3-carboxamide]
22 | < 1000 | C[C@@H](NC(=O)c1ccc(=O)n(-c2cccc(-c3ccnn3C)c2)n1)c1cc(N)cc(C(F)(F)F)c1 [Example 333, N-[(1R)-1-[3-amino-5-(trifluoromethyl)phenyl]ethyl]-1-[3-(2-methylpyrazol-3-yl)phenyl]-6-oxo-pyridazine-3-carboxamide]
23 | > 10000 | C[C@@H](NC(=O)c1ccc(=O)n(-c2cccnc2)c1)c1cc(N)cc(C(F)(F)F)c1 [Example 176, N-[(1R)-1-[3-amino-5-(trifluoromethyl)phenyl]ethyl]-6-oxo-1-(3-pyridyl)pyridine-3-carboxamide]
24 | < 1000 | COc1cc(-n2nc(C(=O)N[C@H](C)c3cccc(C(F)(F)CO)c3F)ccc2=O)ccn1 [Example 193, N-[(1R)-1-[3-(1,1-difluoro-2-hydroxy-ethyl)-2-fluoro-phenyl]ethyl]-1-(2-methoxy-4-pyridyl)-6-oxo-pyridazine-3-carboxamide]
25 | < 1000 | C[C@@H](NC(=O)c1nn(-c2cccnc2F)c(=O)c2ccsc12)c1cc(N)cc(C(F)(F)F)c1 [Example 311, N-[(1R)-1-[3-amino-5-(trifluoromethyl)phenyl]ethyl]-5-(2-fluoro-3-pyridyl)-4-oxo-thieno[2,3-d]pyridazine-7-carboxamide]
26 | < 1000 | C[C@@H](NC(=O)c1cc(Br)c(=O)n(-c2ccccc2)n1)c1cc(N)cc(C(F)(F)F)c1 [Example 241, (R)-N-(1-(3-amino-5-(trifluoromethyl)phenyl)ethyl)-5-bromo-6-oxo-1-phenyl-1,6-dihydropyridazine-3-carboxamide]
